Laboratory results: patent US20240270821A1, “GIP/GLP1/GCG TRI-RECEPTOR AGONISTS AND USES THEREOF” (priority 2023, published 2024)
Where two headings read alike, the source gives them in different places. Starred links: 1 amine or outer side, 2 acyl side, 3 side chain; linkers in the order of their positions; H or OH if unused. Non-standard residues stand in square brackets, D forms with d. Residues, ends and D or L forms follow the SMILES beside them. Groups on a side chain read outwards from the residue. *: point of attachment. Phe(4-NO2) = N[C@@H](Cc1ccc([N+](=O)[O-])cc1)C(=O)O; C20 diacid = O=C(O)CCCCCCCCCCCCCCCCCCC(=O)*; C18 diacid = O=C(O)CCCCCCCCCCCCCCCCC(=O)*; αMePhe(2-F) = C[C@](N)(Cc1ccccc1F)C(=O)O; γGlu = O=C(O)[C@H](CCC(=O)[*:2])N[*:1]; NMeY = CN[C@@H](Cc1ccc(O)cc1)C(=O)O; αMe4Pal = C[C@](N)(Cc1ccncc1)C(=O)O; αMeY = C[C@](N)(Cc1ccc(O)cc1)C(=O)O; 4Pal = N[C@@H](Cc1ccncc1)C(=O)O; αMeL = CC(C)C[C@](C)(N)C(=O)O; αMeS = C[C@](N)(CO)C(=O)O; Orn = NCCC[C@H](N)C(=O)O; AEEA = NCCOCCOCC(=O)O; Aib = CC(C)(N)C(=O)O

Assays:
Assay type in all cases: cell-based
hGcgR = hGcgR (Homo sapiens, UniProt P47871); assay: Functional cAMP activation in the presence of 0.1% casein (no HSA); details: read-out: Relative cAMP EC50, hGcgR;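 note: intracellular cAMP rise after 30 min at 37 °C, read by HTRF against a cAMP standard curve, scaled from buffer only (0%) to maximal control ligand response (100%)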
Sequence of hGcgR (P47871 26-477): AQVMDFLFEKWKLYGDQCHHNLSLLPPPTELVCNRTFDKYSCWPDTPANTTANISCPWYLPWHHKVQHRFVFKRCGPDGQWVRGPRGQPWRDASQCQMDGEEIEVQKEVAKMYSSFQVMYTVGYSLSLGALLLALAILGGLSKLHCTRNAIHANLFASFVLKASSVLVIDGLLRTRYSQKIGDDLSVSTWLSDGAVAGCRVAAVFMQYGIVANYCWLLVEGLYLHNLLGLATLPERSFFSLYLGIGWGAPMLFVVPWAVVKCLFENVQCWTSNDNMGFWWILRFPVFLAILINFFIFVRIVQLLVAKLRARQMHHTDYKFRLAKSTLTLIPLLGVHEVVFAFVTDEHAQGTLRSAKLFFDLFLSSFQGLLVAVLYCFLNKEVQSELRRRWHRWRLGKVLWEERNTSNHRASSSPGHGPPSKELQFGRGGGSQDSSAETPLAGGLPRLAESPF

human GcgR = human GcgR (Homo sapiens, UniProt P47871); assay: Functional cAMP activity in the presence of 1% HSA; details: read-out: cAMP Rel EC50, hGcgR
Sequence of human GcgR (P47871 26-477): as above

hGLP-1R [1] = molecular target: T1, hGLP-1R (Homo sapiens, UniProt P43220); assay: Functional cAMP activation in the presence of 0.1% casein (no HSA); details: read-out: Relative cAMP EC50, hGLP-1R;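 note: intracellular cAMP rise after 30 min at 37 °C read by HTRF, normalized between buffer only (0%) and maximal control ligand (100%), four-parameter variable-slope fit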
T1 sequence (P43220 24-463): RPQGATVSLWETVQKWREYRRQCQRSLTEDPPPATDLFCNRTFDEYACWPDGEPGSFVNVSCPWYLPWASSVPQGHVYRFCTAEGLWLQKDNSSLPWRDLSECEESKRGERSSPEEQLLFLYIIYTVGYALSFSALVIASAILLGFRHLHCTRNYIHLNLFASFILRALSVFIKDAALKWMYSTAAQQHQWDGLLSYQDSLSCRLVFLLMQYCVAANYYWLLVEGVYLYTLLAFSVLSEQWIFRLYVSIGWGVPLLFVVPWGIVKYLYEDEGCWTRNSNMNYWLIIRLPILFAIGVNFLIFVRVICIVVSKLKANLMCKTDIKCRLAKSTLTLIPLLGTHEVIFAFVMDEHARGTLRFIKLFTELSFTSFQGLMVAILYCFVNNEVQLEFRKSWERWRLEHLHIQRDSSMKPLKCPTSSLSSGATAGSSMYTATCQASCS

hGLP-1R [2] = molecular target: T1, hGLP-1R; assay: Functional cAMP activity in the presence of 1% HSA; details: read-out: cAMP Rel EC50, hGLP-1R
hGIPR [3] = molecular target: T2, hGIPR (Homo sapiens, UniProt P48546); assay: Functional cAMP activation in the presence of 0.1% casein (no HSA); details: read-out: Relative cAMP EC50, hGIPR;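 note: intracellular cAMP rise after 30 min at 37 °C read by HTRF against a standard curve, scaled between buffer alone (0%) and top control ligand concentration (100%), four-parameter fit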
T2 sequence (P48546 22-466): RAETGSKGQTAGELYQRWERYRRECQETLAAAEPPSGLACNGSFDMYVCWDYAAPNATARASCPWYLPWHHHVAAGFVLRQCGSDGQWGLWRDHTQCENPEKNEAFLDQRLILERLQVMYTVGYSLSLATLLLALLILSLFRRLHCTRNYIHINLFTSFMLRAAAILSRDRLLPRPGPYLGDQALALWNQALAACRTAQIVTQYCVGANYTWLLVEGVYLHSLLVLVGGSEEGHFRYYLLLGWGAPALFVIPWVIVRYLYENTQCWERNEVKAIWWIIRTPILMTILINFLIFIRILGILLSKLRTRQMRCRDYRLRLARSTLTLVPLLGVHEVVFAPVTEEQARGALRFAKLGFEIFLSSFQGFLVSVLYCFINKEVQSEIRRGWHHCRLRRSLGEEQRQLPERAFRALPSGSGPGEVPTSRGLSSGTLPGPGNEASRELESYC

hGIPR [4] = molecular target: T2, hGIPR; assay: Functional cAMP activity in the presence of 1% HSA; details: read-out: cAMP Rel EC50, hGIPR
[5] = in the presence of 0.1% casein (no HSA), geometric mean

| Compound | EC50 (hGcgR; [5]) [nM] | EC50 (human GcgR) [nM] | EC50 (hGLP-1R [1]; [5]) [nM] | EC50 (hGLP-1R [2]) [nM] | EC50 (hGIPR [3]; [5]) [nM] | EC50 (hGIPR [4]) [nM] | EC50 (hGcgR) [nM] | EC50 (hGLP-1R [1]) [nM] | EC50 (hGIPR [3]) [nM] |
| --- | --- | --- | --- | --- | --- | --- | --- | --- | --- |
| CC[C@H](C)[C@H](NC(=O)[C@H](Cc1ccccc1)NC(=O)[C@H](C)NC(=O)C(C)(C)NC(=O)[C@H](CCC(N)=O)NC(=O)[C@H](C)NC(=O)[C@H](CCCCNC(=O)COCCOCCNC(=O)CC[C@H](NC(=O)CCCCCCCCCCCCCCCCC(=O)O)C(=O)O)NC(=O)[C@H](CCCCN)NC(=O)[C@H](CC(=O)O)NC(=O)[C@H](CC(C)C)NC(=O)[C@](C)(CC(C)C)NC(=O)[C@H](CCCN)NC(=O)[C@H](CO)NC(=O)[C@H](Cc1ccccc1)NC(=O)[C@H](CC(=O)O)NC(=O)[C@H](CO)NC(=O)[C@@H](NC(=O)[C@H](Cc1ccccc1)NC(=O)[C@@H](NC(=O)CNC(=O)[C@H](CCC(N)=O)NC(=O)C(C)(C)NC(=O)[C@@H](N)Cc1ccc(O)cc1)[C@@H](C)O)[C@@H](C)O)C(=O)N[C@@H](CCC(=O)O)C(=O)N[C@@H](Cc1ccc(O)cc1)C(=O)N[C@@H](CC(C)C)C(=O)N[C@@H](CC(C)C)C(=O)N[C@@H](CCC(=O)O)C(=O)N[C@H](C)C(=O)NCC(=O)N1CCC[C@H]1C(=O)N[C@@H](CO)C(=O)N[C@@H](CO)C(=O)NCC(=O)N[C@@H](C)C(=O)N1CCC[C@H]1C(=O)N1CCC[C@H]1C(=O)N1CCC[C@H]1C(=O)N[C@@H](CO)C(=O)NCC(=O)N[C@@H](Cc1c[nH]cn1)C(N)=O [Example 259] | 2.55 | 317 | 1.47 | 220 | 0.114 | 18.4 |  |  |  |
| H-Y[Aib]QGTFTSD[4Pal]S[Orn][αMeL]LDKK([γGlu-γGlu-C18 diacid])AQ[αMe4Pal]AFIEYLIE[Aib]GPSSGAPPPSGS-NH2 [Example 865] | 1.48 | 248 | 3.02 | 351 | 0.0797 | 10.8 |  |  |  |
| H-Y[Aib]QGTFTSDFS[Orn][αMeL]LDKK([γGlu-γGlu-C18 diacid])AQ[Aib]AFIEYLLE[Aib]GPSSGAPPPSGS-NH2 [Example 201] | 3.84 | 969 | 3.16 | 679 | 0.0553 | 14.3 |  |  |  |
| H-Y[Aib]QGTFTSDFS[Orn][αMeL]LDKK([AEEA-AEEA-γGlu-C18 diacid])AQ[Aib]AFIEYLLE[dA]GPSSGEPPPSGT-NH2 [Example 156] | 3.62 | 1520 | 3.37 | 695 | 0.208 | 25.8 |  |  |  |
| H-Y[Aib]QGT[αMePhe(2-F)]TSD[4Pal]SI[αMeL]LD[Orn]K([γGlu-γGlu-C18 diacid])AQ[αMe4Pal][Orn]FI[dE][αMeY]LIEGGPSSGEPPPSGE-NH2 [Example 682] |  | 127 |  | 14 |  | 0.415 | 1.91 | 0.212 | 0.00661 |
| H-Y[Aib]QGTFTSD[4Pal]SQ[αMeL]LD[Orn]K([dE-γGlu-C18 diacid])AQ[αMe4Pal]QFIQ[αMeY]LIE[Aib]GPSSGEPPPSGGGE-NH2 [Example 1129] | 6.11 | 796 | 0.501 | 56.6 | 0.048 | 4.16 |  |  |  |
| H-Y[Aib]QGTFTSDFS[Orn][αMeL]LDKK([AEEA-γGlu-C18 diacid])AQ[Aib]AFIEYLLAGGPSSGEPPPEGS-NH2 [Example 152] | 6.91 | 1090 | 4.03 | 491 | 0.259 | 23.2 |  |  |  |
| H-Y[Aib]QGTFTSD[4Pal]SQ[αMeL]LD[Orn]K([AEEA-γGlu-C18 diacid])AQ[Aib]AFIE[αMeY]LIEGGPSSGAPPPSGS-NH2 [Example 850] | 28.4 | 3660 | 0.451 | 57.8 | 0.346 | 27 |  |  |  |
| H-Y[Aib]QGT[αMePhe(2-F)]TSD[4Pal][αMeS]ILLD[Orn]K([γGlu-γGlu-C18 diacid])AQ[Aib][Orn]FI[dE]YLIEGGPSSGEPPPEGSEE-NH2 [Example 603] |  | 419 |  | 49.5 |  | 4.99 | 5.43 | 0.688 | 0.102 |
| CC[C@H](C)[C@H](NC(=O)[C@H](Cc1ccccc1)NC(=O)[C@H](C)NC(=O)C(C)(C)NC(=O)[C@H](CCC(N)=O)NC(=O)[C@H](C)NC(=O)[C@H](CCCCNC(=O)COCCOCCNC(=O)CC[C@H](NC(=O)CCCCCCCCCCCCCCCCC(=O)O)C(=O)O)NC(=O)[C@H](CCCCN)NC(=O)[C@H](CC(=O)O)NC(=O)[C@H](CC(C)C)NC(=O)[C@](C)(CC(C)C)NC(=O)[C@@H](NC(=O)[C@H](CO)NC(=O)[C@H](Cc1ccc(O)cc1)NC(=O)[C@H](CC(=O)O)NC(=O)[C@H](CO)NC(=O)[C@@H](NC(=O)[C@](C)(Cc1ccccc1F)NC(=O)[C@@H](NC(=O)CNC(=O)[C@H](CCC(N)=O)NC(=O)C(C)(C)NC(=O)[C@@H](N)Cc1ccc(O)cc1)[C@@H](C)O)[C@@H](C)O)[C@@H](C)CC)C(=O)N[C@@H](CCC(=O)O)C(=O)N[C@@H](Cc1ccc(O)cc1)C(=O)N[C@@H](CC(C)C)C(=O)N[C@@H](CCC(=O)O)C(=O)N[C@@H](CCC(=O)O)C(=O)NCC(=O)NCC(=O)N1CCC[C@H]1C(=O)N[C@@H](CO)C(=O)N[C@@H](CO)C(=O)NCC(=O)N[C@@H](C)C(=O)N1CCC[C@H]1C(=O)N1CCC[C@H]1C(=O)N1CCC[C@H]1C(=O)N[C@@H](CO)C(N)=O [Example 421] (H-Y[Aib]QGT[αMePhe(2-F)]TSDYSI[αMeL]LDKK([AEEA-γGlu-C18 diacid])AQ[Aib]AFIEYLEEGGPSSGAPPPS-NH2) |  | 468 |  | 31.9 |  | 2.98 | 3.25 | 0.21 | 0.0132 |
| H-[NMeY][Aib]QGTFTSD[4Pal][αMeS]Q[αMeL]LD[Orn]K([dE-γGlu-C18 diacid])AQ[αMe4Pal]QFIQ[αMeY]LIE[Aib]GPSSGAPPPSGGGE-NH2 [Example 1134] | 2.57 | 180 | 0.957 | 78.9 | 0.0391 | 2.41 |  |  |  |
| CC[C@H](C)[C@H](NC(=O)[C@H](Cc1ccccc1)NC(=O)[C@H](C)NC(=O)C(C)(C)NC(=O)[C@H](CCC(N)=O)NC(=O)[C@H](C)NC(=O)[C@H](CCCCNC(=O)COCCOCCNC(=O)CC[C@H](NC(=O)CCCCCCCCCCCCCCCCC(=O)O)C(=O)O)NC(=O)[C@H](CCCCN)NC(=O)[C@H](CC(=O)O)NC(=O)[C@H](CC(C)C)NC(=O)[C@](C)(CC(C)C)NC(=O)[C@@H](NC(=O)[C@H](CO)NC(=O)[C@H](Cc1ccc([N+](=O)[O-])cc1)NC(=O)[C@H](CC(=O)O)NC(=O)[C@H](CO)NC(=O)[C@@H](NC(=O)[C@](C)(Cc1ccccc1F)NC(=O)[C@@H](NC(=O)CNC(=O)[C@H](CCC(N)=O)NC(=O)C(C)(C)NC(=O)[C@@H](N)Cc1ccc(O)cc1)[C@@H](C)O)[C@@H](C)O)[C@@H](C)CC)C(=O)N[C@@H](CCC(=O)O)C(=O)N[C@@H](Cc1ccc(O)cc1)C(=O)N[C@@H](CC(C)C)C(=O)N[C@@H](CCC(=O)O)C(=O)N[C@@H](CCC(=O)O)C(=O)NCC(=O)NCC(=O)N1CCC[C@H]1C(=O)N[C@@H](CO)C(=O)N[C@@H](CO)C(=O)NCC(=O)N[C@@H](C)C(=O)N1CCC[C@H]1C(=O)N1CCC[C@H]1C(=O)N1CCC[C@H]1C(=O)N[C@@H](CCC(=O)O)C(N)=O [Example 495] (H-Y[Aib]QGT[αMePhe(2-F)]TSD[Phe(4-NO2)]SI[αMeL]LDKK([AEEA-γGlu-C18 diacid])AQ[Aib]AFIEYLEEGGPSSGAPPPE-NH2) |  | 205 |  | 53.8 |  | 5.74 | 1.75 | 0.274 | 0.0361 |
| H-Y[Aib]QGTFTSD[4Pal]SR[αMeL]LDKK([AEEA-γGlu-C18 diacid])AQ[Aib]AFIE[αMeY]LIEGGPSSGAPPPSGS-NH2 [Example 837] | 7.24 | 2060 | 0.551 | 69.6 | 0.209 | 20.7 |  |  |  |
| H-Y[Aib]QGTFTSDFSK[αMeL]LDKK([AEEA-AEEA-γGlu-C18 diacid])AQ[Aib]AFIEYLLEGGESSGAPPPSGS-NH2 [Example 147] | 4.39 | 877 | 4.26 | 964 | 0.343 | 108 |  |  |  |
| H-Y[Aib]QGTFTSDFS[Orn][αMeL]LDKK([AEEA-γGlu-C20 diacid])AQ[Aib]AFIEYLLEGGPSSGEPPPSEG-NH2 [Example 59] | 6.57 | 2160 | 4.8 | 1370 | 0.54 | 166 |  |  |  |
